Where “and” joins values, the source holds several entries; their conditions need not be identical. Identical values can stand only once.
What was measured:
EP2 = EP2 (Homo sapiens (Human), UniProt P43116); experiment: Competition binding ([3H]PGE2), EP2; conditions: HEK 293 cells stably expressing human EP2 receptors, [3H]PGE2 10 nM
Procedure: Competition binding experiments were performed in a medium containing Hank's balanced salt solution, HEPES 20 mM, pH 7.3, membranes (˜60 μg protein) or 2×10^5 cells from HEK 293 cells stably expressing human EP2 receptors, [^3H]PGE2 (10 nM) and various concentrations of test compounds in a total volume of 300 μl. Reaction mixtures were incubated at 23° C. for 60 min, and were filtered over Whatman GF/B filters under vacuum. Filters were washed three times with 5 ml ice-cold buffer containing 50 mM Tris/HCl (pH 7.3). Non-specific binding was estimated in the presence of excess unlabeled PGE2 (10 μM). Binding data fitted to the binding model for a single class of binding sites, using nonlinear regression analysis. IC50 values thus obtained were converted to Ki using the equation of Ki=(IC50/(1+[L]/KD) where [L] represents PGE2 concentration (10 nM) and KD the dissociation constant for [^3H]PGE2 at human EP2 receptors (40 nM).

EP4 [1] = target: T1, EP4 (Homo sapiens (Human), UniProt P35408); experiment: cAMP assay, EP4; format: cell-based; conditions: HEK-EBNA cells expressing EP4
Procedure: A 384-well drug plate was prepared to contain 6 test compounds, PGE2 and cAMP in 16 serial dilutions in triplicate, using a Biomek station. HEK-EBNA cells expressing a target PG receptor subtype (EP2 or EP4) were suspended in a stimulation buffer (HBSS, 0.1% BSA, 0.5 mM IBMX and 5 mM HEPES, pH 7.4) in a density of 10^4 cells/5 microliters. The reaction was initiated by mixing 5 microliters drug dilutions with 5 microliters of HEK-EBNA cells in a well, carried out for 30 min at room temperature, and followed by the addition of 5 microliters anti-cAMP acceptor beads in the control buffer with Tween-20 (25 mM NaCl, 0.03% Tween-20, 5 mM HEPES, pH 7.4). After 30 min in the dark at room temperature, the mixtures were incubated with 15 microliters biotinylated-cAMP/streptavidin donor beads in Lysis/Detection buffer (0.1% BSA, 0.3% Tween-20 and 5 mM HEPES, pH 7.4) for 45 min at room temperature. Fluorescence changes were read using a Fusion-alpha microplate reader.

EP4 [2] = target: T1, EP4; experiment: Competition binding, EP4

Chain of EP2 (P43116 whole entry): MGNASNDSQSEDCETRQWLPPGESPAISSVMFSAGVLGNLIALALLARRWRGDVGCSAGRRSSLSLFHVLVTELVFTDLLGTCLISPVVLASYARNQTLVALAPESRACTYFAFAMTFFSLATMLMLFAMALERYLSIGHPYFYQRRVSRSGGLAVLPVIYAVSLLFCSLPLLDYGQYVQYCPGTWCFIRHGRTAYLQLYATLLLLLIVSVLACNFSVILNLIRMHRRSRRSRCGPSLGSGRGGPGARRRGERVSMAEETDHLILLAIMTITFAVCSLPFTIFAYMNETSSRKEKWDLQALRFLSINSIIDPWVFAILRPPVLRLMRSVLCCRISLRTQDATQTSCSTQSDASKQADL
T1 sequence (P35408 whole entry): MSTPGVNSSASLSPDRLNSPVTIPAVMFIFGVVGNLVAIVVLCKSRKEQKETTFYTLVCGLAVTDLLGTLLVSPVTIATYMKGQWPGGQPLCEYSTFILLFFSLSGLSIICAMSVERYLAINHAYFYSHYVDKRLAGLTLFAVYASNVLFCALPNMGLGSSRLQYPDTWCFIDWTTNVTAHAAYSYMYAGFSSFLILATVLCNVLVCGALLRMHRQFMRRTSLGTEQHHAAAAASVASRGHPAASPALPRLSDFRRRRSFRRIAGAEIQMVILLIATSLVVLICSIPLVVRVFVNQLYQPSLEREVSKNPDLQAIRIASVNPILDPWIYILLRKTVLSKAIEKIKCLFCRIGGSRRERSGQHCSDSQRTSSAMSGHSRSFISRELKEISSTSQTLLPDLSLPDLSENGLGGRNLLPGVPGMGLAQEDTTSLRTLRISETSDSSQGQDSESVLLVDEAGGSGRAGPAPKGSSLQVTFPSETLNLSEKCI

Row | SMILES | EP2 Ki (EP2) | EP4 cAMP EC50 (EP4 [1]) | Ki (EP4 [2]) | EC50 (EP4 [1]) | EP4 Ki (EP4 [2]) | Ki (EP2)
1 | O=C(O)c1ccc(CCCN2C(=O)CC[C@@H]2/C=C/C(O)c2cccc(Br)c2)cc1 (single isomer, unassigned) [Example 1] | > 10000 nM | > 10000 nM | 2040 nM | – | – | –
2 | O=C(O)c1ccc(CCCN2C(=O)CC[C@@H]2/C=C/C(O)c2ccccc2)cc1 (single isomer, unassigned) [Example 3] | > 10000 nM | – | – | 9210 nM | > 10000 nM | –
3 | O=C(O)c1ccc(CCCN2C(=O)CC[C@@H]2/C=C/C(O)c2ccccc2)cc1 (single isomer, unassigned) [Example 4] | > 10000 nM | – | 4970 nM | 5540 nM | – | –
4 | O=C(O)c1ccc(CCCN2C(=O)CC[C@@H]2/C=C/C(O)c2cccc(-c3ccccc3)c2)cc1 (single isomer, unassigned) [Example 5] | > 10000 nM | – | 8560 nM | – | – | –
5 | O=C(O)c1ccc(CCCN2C(=O)CC[C@@H]2/C=C/C(O)c2cccc(-c3ccccc3)c2)cc1 (single isomer, unassigned) [Example 6] | > 10000 nM | > 10000 nM | 6710 nM | – | – | –
6 | Cc1ccccc1-c1cccc(C(O)/C=C/[C@H]2CCC(=O)N2CCCc2ccc(C(=O)O)cc2)c1 (single isomer, unassigned) [Example 7] | > 10000 nM | – | 1150 nM | 14 nM | – | –
7 | Cc1ccccc1-c1cccc(C(O)/C=C/[C@H]2CCC(=O)N2CCCc2ccc(C(=O)O)cc2)c1 (single isomer, unassigned) [Example 8] | > 10000 nM | – | 159 nM | 2 nM | – | –
8 | CCc1cc(Cl)ccc1-c1cccc(C(O)/C=C/[C@H]2CCC(=O)N2CCCc2ccc(C(=O)O)cc2)c1 (single isomer, unassigned) [Example 14] | > 10000 nM | – | 216 nM | 33 nM | – | –
9 | CCc1cc(Cl)ccc1-c1cccc(C(O)/C=C/[C@H]2CCC(=O)N2CCCc2ccc(C(=O)O)cc2)c1 (single isomer, unassigned) [Example 15] | > 10000 nM | – | 6 nM | 3 nM | – | –
10 | O=C(O)c1ccc(CCCN2C(=O)CC[C@@H]2/C=C/C(O)c2cccc(-c3ccc(Cl)cc3C(F)(F)F)c2)cc1 (single isomer, unassigned) [Example 16] | > 10000 nM | – | 332 nM | 87 nM | – | –
11 | O=C(O)c1ccc(CCCN2C(=O)CC[C@@H]2/C=C/C(O)c2cccc(-c3ccc(Cl)cc3C(F)(F)F)c2)cc1 (single isomer, unassigned) [Example 17] | > 10000 nM | – | 11 nM | 3 nM | – | –
12 | Cc1cc(Cl)cc(C)c1-c1cccc(C(O)/C=C/[C@H]2CCC(=O)N2CCCc2ccc(C(=O)O)cc2)c1 (single isomer, unassigned) [Example 20] | > 10000 nM | – | 955 nM | 138 nM | – | –
13 | Cc1cc(Cl)cc(C)c1-c1cccc(C(O)/C=C/[C@H]2CCC(=O)N2CCCc2ccc(C(=O)O)cc2)c1 (single isomer, unassigned) [Example 21] | > 10000 nM | – | 60 nM | 2 nM | – | –
14 | Cc1c(-c2cccc(C(O)/C=C/[C@H]3CCC(=O)N3CCCc3ccc(C(=O)O)cc3)c2)ccc(Cl)c1Cl (single isomer, unassigned) [Example 22] | > 10000 nM | – | 2340 nM | 35 nM | – | –
15 | Cc1c(-c2cccc(C(O)/C=C/[C@H]3CCC(=O)N3CCCc3ccc(C(=O)O)cc3)c2)ccc(Cl)c1Cl (single isomer, unassigned) [Example 23] | > 10000 nM | – | 140 nM | 3 nM | – | –
16 | CCCc1cc(Cl)ccc1-c1cccc(C(O)/C=C/[C@H]2CCC(=O)N2CCCc2ccc(C(=O)O)cc2)c1 (single isomer, unassigned) [Example 24] | > 10000 nM | – | 1310 nM | 2340 nM | – | –

Row | SMILES | EP2 Ki (EP2) | EP4 cAMP EC50 (EP4 [1]) | Ki (EP4 [2]) | EC50 (EP4 [1]) | EP4 Ki (EP4 [2]) | Ki (EP2)
17 | CCCc1cc(Cl)ccc1-c1cccc(C(O)/C=C/[C@H]2CCC(=O)N2CCCc2ccc(C(=O)O)cc2)c1 (single isomer, unassigned) [Example 25] | > 10000 nM | – | 130 nM | 63 nM | – | –
18 | Cc1cc(Cl)ccc1-c1cc(F)cc(C(O)/C=C/[C@H]2CCC(=O)N2CCCc2ccc(C(=O)O)cc2)c1 (single isomer, unassigned) [Example 34] | > 10000 nM | – | 4340 nM | 1740 nM | – | –
19 | Cc1cc(Cl)ccc1-c1cc(F)cc(C(O)/C=C/[C@H]2CCC(=O)N2CCCc2ccc(C(=O)O)cc2)c1 (single isomer, unassigned) [Example 35] | > 10000 nM | – | 352 nM | 59 nM and 99 nM | – | –
20 | Cc1cc(Cl)ccc1-c1cc(C(O)/C=C/[C@H]2CCC(=O)N2CCCc2ccc(C(=O)O)cc2)ccc1F (single isomer, unassigned) [Example 36] | > 10000 nM | – | 4480 nM | 1030 nM | – | –
21 | Cc1cc(Cl)ccc1-c1cc(C(O)/C=C/[C@H]2CCC(=O)N2CCCc2ccc(C(=O)O)cc2)ccc1F (single isomer, unassigned) [Example 37] | – | – | – | 123 nM and 211 nM | – | –
22 | Cc1cc(F)ccc1-c1cccc(C(O)/C=C/[C@H]2CCC(=O)N2CCCc2ccc(C(=O)O)cc2)c1 (stereo partly drawn) [Example 11, 4-(3-{2(R)-[(1E)-3-(4′-fluoro-2′-methylbiphenyl-3-yl)-3-hydroxyprop-1-en-1-yl]-5-oxopyrrolidin-1-yl}propyl)benzoic acid] | > 10000 nM | – | > 1340 nM | – | – | –
23 | Cc1cc(F)ccc1-c1cccc(C(O)/C=C/[C@H]2CCC(=O)N2CCCc2ccc(C(=O)O)cc2)c1 (stereo partly drawn) [Example 12, 4-(3-{2(R)-[(1E)-3-(4′-fluoro-2′-methylbiphenyl-3-yl)-3-hydroxyprop-1-en-1-yl]-5-oxopyrrolidin-1-yl}propyl)benzoic acid] | > 10000 nM | – | 53 nM | 8 nM | – | –
24 | Cc1cc(Cl)ccc1-c1cccc(C(O)/C=C/[C@H]2CCC(=O)N2CCCc2ccc(C(=O)O)cc2)c1 (stereo partly drawn) [Example 13, 4-(3-{2(R)-[(1E)-3-(4′-chloro-2′-methylbiphenyl-3-yl)-3-hydroxyprop-1-en-1-yl]-5-oxopyrrolidin-1-yl}propyl)benzoic acid] | – | – | 23 nM | 4 nM | – | 4320 nM
25 | O=C(O)c1ccc(CCCN2C(=O)CC[C@@H]2/C=C/C(O)c2cccc(-c3ccc(Cl)cc3CO)c2)cc1 (stereo partly drawn) [Example 18, 4-[3-(2(R)-{(1E)-3-[4′-chloro-2′-(hydroxymethyl)biphenyl-3-yl]-3-hydroxyprop-1-en-1-yl}-5-oxopyrrolidin-1-yl)propyl]benzoic acid] | > 10000 nM | > 10000 nM | – | – | > 10000 nM | –
26 | O=C(O)c1ccc(CCCN2C(=O)CC[C@@H]2/C=C/C(O)c2cccc(-c3ccc(Cl)cc3CO)c2)cc1 (stereo partly drawn) [Example 19, 4-[3-(2(R)-{(1E)-3-[4′-chloro-2′-(hydroxymethyl)biphenyl-3-yl]-3-hydroxyprop-1-en-1-yl}-5-oxopyrrolidin-1-yl)propyl]benzoic acid] | > 10000 nM | – | 658 nM | 95 nM and 165 nM | – | –
27 | CC(C)(C)c1cc(Cl)ccc1-c1cccc(C(O)/C=C/[C@H]2CCC(=O)N2CCCc2ccc(C(=O)O)cc2)c1 (stereo partly drawn) [Example 26, 4-(3-{2(R)-[(1E)-3-(2′-tert-butyl-4′-chlorobiphenyl-3-yl)-3-hydroxyprop-1-en-1-yl]-5-oxopyrrolidin-1-yl}propyl)benzoic acid] | > 10000 nM | > 10000 nM | 8850 nM | – | – | –
28 | CC(C)(C)c1cc(Cl)ccc1-c1cccc(C(O)/C=C/[C@H]2CCC(=O)N2CCCc2ccc(C(=O)O)cc2)c1 (stereo partly drawn) [Example 27, 4-(3-{2(R)-[(1E)-3-(2′-tert-butyl-4′-chlorobiphenyl-3-yl)-3-hydroxyprop-1-en-1-yl]-5-oxopyrrolidin-1-yl}propyl)benzoic acid] | > 10000 nM | – | 757 nM | 107 nM | – | –
29 | CCCCc1cc(Cl)ccc1-c1cccc(C(O)/C=C/[C@H]2CCC(=O)N2CCCc2ccc(C(=O)O)cc2)c1 (stereo partly drawn) [Example 28, 4-(3-{2(R)-[(1E)-3-(2′-butyl-4′-chlorobiphenyl-3-yl)-3-hydroxyprop-1-en-1-yl]-5-oxopyrrolidin-1-yl}propyl)benzoic acid] | > 10000 nM | – | 5160 nM | – | – | –
30 | CCCCc1cc(Cl)ccc1-c1cccc(C(O)/C=C/[C@H]2CCC(=O)N2CCCc2ccc(C(=O)O)cc2)c1 (stereo partly drawn) [Example 29, 4-(3-{2(R)-[(1E)-3-(2′-butyl-4′-chlorobiphenyl-3-yl)-3-hydroxyprop-1-en-1-yl]-5-oxopyrrolidin-1-yl}propyl)benzoic acid] | > 10000 nM | – | 319 nM | 117 nM | – | –
31 | Cc1cc(Cl)ccc1-c1ccc(C(O)/C=C/[C@H]2CCC(=O)N2CCCc2ccc(C(=O)O)cc2)s1 (stereo partly drawn) [Example 32, 4-[3-(2(R)-{(1E)-3-[5-(4-chloro-2-methylphenyl)thiophen-2-yl]-3-hydroxyprop-1-en-1-yl}-5-oxopyrrolidin-1-yl)propyl]benzoic acid] | > 10000 nM | – | 4830 nM | – | – | –
